{"source": "paper PMC8584989", "about": "(International Journal of Molecular Sciences, 2021)", "key": {"ABCB1": {"molecular_target": "ABCB1 (Homo sapiens, UniProt P08183)", "sequence (P08183 whole entry)": "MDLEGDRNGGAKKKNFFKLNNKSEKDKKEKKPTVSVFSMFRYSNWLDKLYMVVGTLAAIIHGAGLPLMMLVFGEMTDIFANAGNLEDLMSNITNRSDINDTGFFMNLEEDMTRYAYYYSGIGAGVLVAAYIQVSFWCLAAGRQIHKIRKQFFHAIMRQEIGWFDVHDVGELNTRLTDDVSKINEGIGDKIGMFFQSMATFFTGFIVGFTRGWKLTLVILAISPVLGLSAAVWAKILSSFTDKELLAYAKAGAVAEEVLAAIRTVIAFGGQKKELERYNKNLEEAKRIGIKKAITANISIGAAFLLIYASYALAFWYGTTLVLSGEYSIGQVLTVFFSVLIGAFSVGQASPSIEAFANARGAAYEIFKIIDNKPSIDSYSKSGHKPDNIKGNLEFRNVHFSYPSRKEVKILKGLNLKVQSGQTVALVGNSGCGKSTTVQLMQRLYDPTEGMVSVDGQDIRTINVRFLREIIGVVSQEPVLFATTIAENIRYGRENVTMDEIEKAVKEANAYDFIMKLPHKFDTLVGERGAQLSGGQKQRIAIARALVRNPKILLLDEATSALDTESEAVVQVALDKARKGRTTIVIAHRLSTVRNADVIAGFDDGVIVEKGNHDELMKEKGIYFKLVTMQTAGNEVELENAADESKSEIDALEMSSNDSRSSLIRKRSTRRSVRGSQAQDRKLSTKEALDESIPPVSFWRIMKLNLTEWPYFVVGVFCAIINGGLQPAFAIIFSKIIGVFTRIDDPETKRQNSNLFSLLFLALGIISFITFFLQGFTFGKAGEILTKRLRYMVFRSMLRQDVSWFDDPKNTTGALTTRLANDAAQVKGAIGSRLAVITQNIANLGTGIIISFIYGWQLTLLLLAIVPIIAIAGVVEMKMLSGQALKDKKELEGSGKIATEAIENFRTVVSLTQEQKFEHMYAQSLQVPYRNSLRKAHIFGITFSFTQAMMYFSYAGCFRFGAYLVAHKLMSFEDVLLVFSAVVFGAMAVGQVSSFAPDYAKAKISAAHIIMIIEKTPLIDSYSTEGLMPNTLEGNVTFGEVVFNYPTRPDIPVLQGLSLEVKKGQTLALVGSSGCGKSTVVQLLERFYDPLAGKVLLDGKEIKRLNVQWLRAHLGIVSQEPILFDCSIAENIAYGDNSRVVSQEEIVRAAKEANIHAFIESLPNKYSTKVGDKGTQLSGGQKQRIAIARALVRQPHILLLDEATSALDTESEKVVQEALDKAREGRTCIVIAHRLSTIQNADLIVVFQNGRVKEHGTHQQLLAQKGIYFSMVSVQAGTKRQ", "experiment": "Inhibitory accumulation assay in MDCKII-ABCB1 cells", "format": "cell-based", "protocol": "(§1) Accumulation assays were performed as described previously. […] The daunorubicin and mitoxantrone accumulation assays were performed in above mentioned cell lines and were also adopted to primary NSCLC cultures. […] Cells were incubated up to 70-80% confluence for approximately 24 h. […] The cells there trypsinized on ice, resuspended with 2% FBS in cold PBS solution and then fluorescence was detected using flow cytometer (BD FACSCanto II, Allschwil, Switzerland). […] For data presentation, the ratios of relative fluorescence units (RFUs) from treated samples to RFUs from vehicle-treated (control) cells were computed generating “relative substrate accumulation”."}, "ABCG2": {"molecular_target": "T1, ABCG2 (Homo sapiens, UniProt Q9UNQ0)", "T1 sequence (Q9UNQ0 1-655)": "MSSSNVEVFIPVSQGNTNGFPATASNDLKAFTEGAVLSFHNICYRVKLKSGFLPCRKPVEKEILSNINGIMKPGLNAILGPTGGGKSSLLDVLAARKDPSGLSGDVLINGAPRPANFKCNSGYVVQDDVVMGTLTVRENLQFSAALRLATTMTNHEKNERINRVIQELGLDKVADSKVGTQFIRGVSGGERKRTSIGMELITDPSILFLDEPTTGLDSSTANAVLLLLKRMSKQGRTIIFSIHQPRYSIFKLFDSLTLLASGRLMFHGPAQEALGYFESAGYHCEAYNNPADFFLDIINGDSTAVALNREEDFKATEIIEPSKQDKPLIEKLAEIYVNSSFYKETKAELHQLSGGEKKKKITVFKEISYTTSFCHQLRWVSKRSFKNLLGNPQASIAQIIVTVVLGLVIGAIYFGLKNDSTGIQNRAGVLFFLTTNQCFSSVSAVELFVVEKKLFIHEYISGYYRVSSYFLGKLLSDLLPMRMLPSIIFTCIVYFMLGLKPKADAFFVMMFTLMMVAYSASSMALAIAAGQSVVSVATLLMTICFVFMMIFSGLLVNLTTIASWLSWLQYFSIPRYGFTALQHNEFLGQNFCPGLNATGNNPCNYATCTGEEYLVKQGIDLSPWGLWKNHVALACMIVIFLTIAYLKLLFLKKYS", "experiment": "Inhibitory accumulation assay in MDCKII-ABCG2 cells", "format": "cell-based", "protocol": "as §1"}, "ABCC1": {"molecular_target": "ABCC1 (Homo sapiens, UniProt P33527)", "sequence (P33527 whole entry)": "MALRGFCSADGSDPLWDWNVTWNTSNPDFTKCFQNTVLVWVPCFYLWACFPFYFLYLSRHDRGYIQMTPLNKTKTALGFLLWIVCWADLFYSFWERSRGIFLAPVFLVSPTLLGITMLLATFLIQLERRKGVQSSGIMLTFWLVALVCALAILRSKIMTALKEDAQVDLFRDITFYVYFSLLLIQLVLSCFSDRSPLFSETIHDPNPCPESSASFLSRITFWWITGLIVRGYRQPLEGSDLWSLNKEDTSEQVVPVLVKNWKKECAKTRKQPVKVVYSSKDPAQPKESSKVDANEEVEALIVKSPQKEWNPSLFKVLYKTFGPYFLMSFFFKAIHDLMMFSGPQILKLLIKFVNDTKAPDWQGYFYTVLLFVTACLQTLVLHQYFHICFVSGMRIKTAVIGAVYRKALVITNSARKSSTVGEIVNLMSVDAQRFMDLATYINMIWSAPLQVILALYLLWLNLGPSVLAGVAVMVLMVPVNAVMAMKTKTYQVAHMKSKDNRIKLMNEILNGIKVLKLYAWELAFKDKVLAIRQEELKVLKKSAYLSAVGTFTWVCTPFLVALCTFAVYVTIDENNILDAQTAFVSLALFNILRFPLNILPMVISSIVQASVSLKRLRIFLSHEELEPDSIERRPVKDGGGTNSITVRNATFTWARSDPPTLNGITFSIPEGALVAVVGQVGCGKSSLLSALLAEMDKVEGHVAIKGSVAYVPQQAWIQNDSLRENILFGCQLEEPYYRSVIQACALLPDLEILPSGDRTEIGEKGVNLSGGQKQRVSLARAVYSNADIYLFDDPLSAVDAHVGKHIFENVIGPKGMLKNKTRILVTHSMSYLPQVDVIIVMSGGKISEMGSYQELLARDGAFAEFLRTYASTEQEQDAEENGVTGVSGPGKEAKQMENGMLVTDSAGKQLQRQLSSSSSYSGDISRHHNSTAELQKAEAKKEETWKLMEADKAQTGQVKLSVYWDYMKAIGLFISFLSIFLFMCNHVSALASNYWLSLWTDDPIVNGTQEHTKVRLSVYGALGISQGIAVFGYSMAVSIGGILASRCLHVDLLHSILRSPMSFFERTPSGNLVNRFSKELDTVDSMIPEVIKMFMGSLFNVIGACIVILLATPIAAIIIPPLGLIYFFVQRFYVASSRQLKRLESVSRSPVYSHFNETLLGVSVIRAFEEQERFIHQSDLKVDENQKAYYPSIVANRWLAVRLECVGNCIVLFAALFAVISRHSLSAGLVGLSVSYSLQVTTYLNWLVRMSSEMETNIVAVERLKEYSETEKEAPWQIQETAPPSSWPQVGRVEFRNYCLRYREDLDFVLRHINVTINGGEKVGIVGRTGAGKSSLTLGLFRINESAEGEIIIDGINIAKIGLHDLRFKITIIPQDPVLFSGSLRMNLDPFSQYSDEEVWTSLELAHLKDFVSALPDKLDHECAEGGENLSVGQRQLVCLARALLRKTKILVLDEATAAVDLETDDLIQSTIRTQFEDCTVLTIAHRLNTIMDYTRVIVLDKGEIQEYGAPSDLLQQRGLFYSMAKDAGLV", "experiment": "Inhibitory accumulation assay in MDCKII-ABCC1 cells", "format": "cell-based", "protocol": "as §1"}, "CYP3A5": {"molecular_target": "T2, CYP3A5 (Homo sapiens, UniProt P20815)", "T2 construct": "purchased Thermo Fisher Scientific", "T2 sequence (P20815 whole entry, canonical isoform)": "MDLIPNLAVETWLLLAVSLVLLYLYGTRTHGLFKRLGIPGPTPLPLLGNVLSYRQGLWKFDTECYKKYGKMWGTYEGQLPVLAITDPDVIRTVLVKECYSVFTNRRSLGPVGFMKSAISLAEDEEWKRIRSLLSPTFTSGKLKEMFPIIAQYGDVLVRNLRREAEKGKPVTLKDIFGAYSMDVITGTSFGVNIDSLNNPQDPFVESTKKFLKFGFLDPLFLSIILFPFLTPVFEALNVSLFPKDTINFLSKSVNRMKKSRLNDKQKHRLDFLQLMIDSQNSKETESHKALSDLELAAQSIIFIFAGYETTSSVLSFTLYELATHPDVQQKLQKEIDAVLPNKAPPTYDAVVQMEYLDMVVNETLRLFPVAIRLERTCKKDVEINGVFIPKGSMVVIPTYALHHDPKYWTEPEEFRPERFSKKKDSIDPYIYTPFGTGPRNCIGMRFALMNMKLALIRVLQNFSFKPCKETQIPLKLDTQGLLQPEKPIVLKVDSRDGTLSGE", "experiment": "Vivid CYP450 Screening Kit, recombinant CYP3A5", "format": "in vitro ADME", "protocol": "(§2) CYP inhibitory assay was performed using Vivid CYP450 screening kit as described previously. The kits consist of microsomal fraction containing human CYP isoforms, human CYP reductase and in several cases cytochrome b5. Experiments were performed following the manufacturer’s protocol on black 96-well plates using kinetic mode. […] Then, the master mix (CYP isoenzyme with an NADPH regeneration system in buffer) was added in each well and plate was pre-incubated for 10 min. The reaction was started with the mixture of NADP^+ and Vivid substrate and the fluorescence of samples was measured in 1 min interval for 60 min using an Infinite M200 Pro microplate reader (Tecan, Männedorf, Switzerland). Data from linear phase (15 min) were used for data evaluation."}, "CYP2B6": {"molecular_target": "T3, CYP2B6 (Homo sapiens, UniProt P20813)", "T3 construct": "purchased Thermo Fisher Scientific", "T3 sequence (P20813 whole entry)": "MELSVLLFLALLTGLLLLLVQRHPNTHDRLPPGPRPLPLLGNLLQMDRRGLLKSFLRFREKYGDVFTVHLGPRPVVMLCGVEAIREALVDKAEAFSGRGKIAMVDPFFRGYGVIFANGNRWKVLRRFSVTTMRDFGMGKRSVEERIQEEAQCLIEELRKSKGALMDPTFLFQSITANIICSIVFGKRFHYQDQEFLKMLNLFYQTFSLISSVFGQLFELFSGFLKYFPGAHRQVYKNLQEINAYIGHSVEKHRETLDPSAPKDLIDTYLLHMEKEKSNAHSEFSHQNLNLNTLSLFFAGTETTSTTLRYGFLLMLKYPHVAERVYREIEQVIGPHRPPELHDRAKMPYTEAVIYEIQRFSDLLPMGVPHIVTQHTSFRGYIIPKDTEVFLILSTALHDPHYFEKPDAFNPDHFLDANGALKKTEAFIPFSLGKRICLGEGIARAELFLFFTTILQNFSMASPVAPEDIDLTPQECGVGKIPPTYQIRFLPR", "experiment": "Vivid CYP450 Screening Kit, recombinant CYP2B6", "format": "in vitro ADME", "conditions": "recombinant enzyme; read-out: CYP2B6 inhibition IC50", "protocol": "as §2"}, "CYP2C19": {"molecular_target": "T4, CYP2C19 (Homo sapiens, UniProt P33261)", "T4 construct": "purchased Thermo Fisher Scientific", "T4 sequence (P33261 whole entry)": "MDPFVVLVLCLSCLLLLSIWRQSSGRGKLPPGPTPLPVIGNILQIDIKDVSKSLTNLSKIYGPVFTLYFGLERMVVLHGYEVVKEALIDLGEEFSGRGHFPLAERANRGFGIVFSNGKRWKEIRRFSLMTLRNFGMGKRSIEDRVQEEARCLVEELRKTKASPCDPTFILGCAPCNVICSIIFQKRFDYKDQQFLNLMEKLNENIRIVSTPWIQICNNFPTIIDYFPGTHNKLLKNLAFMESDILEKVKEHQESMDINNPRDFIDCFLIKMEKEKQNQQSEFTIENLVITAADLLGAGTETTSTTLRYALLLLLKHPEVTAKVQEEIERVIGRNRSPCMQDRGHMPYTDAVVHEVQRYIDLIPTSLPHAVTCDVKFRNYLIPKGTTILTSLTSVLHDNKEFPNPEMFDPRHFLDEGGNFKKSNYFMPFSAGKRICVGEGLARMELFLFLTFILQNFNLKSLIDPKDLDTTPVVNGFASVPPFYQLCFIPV", "experiment": "Vivid CYP450 Screening Kit, recombinant CYP2C19", "format": "in vitro ADME", "conditions": "recombinant enzyme; read-out: CYP2C19 inhibition IC50", "protocol": "as §2"}, "A431-par cells": {"tested_on": "A431-par cells", "experiment": "MTT proliferation / drug combination assay", "format": "cell-based", "conditions": "48 h, read-out: A431-par IC50", "protocol": "(§3) These colorimetric assays were used in various studies presented in this paper (prior induction studies, MDR reversal experiments and comparative viability assays) and were performed as reported previously. […] In MTT experiments, cells were seeded on a 96-well culture plate at densities (in number of cells/well) of 1.3 × 10^4 for MDCKII-par, MDCKII-ABCB1 and MDCKII-ABCG2; 1.2 × 10^4 for A431-par, A431-ABCB1, A431-ABCG2 and A431-ABCC1; 1.2 × 10^4 for NCI-H1299; 1.0 × 10^4 for A459; 2.0 × 10^4 for Caco-2; 5.0 × 10^4 for LS174T; and 1.0 × 10^4 for primary NSCLC explants. On the other hand, for XTT cells were seeded with densities 2.0 × 10^4 for HL60-par, HL60-ABCB1, HL60-ABCG2 and HL60-ABCC1 cells/well on 96-well plates. […] Following 48 h incubation with drugs, Opti-MEM solutions of MTT or XTT (1 mg/mL) with phenazine methosulfate solution (7.50 μg/mL; only for XTT) was added and the cells were incubated for 1 h with the exception of HL60s that were incubated for 5 h.\n(§4) Based on the computed CI values, the effects of drug combinations were classified as synergistic (CI < 0.9), additive (0.9 < CI < 1.1) or antagonistic (CI > 1.1)."}, "A431-ABCC1 cells": {"tested_on": "A431-ABCC1 cells", "experiment": "MTT proliferation assay (comparative viability)", "format": "cell-based", "conditions": "single drug, 48 h", "protocol": "as §3"}, "HL60-par cells": {"tested_on": "HL60-par cells", "experiment": "XTT proliferation / drug combination assay", "format": "cell-based", "conditions": "48 h, read-out: HL60-par IC50", "protocol": "as §3, §4"}, "CYP3A4": {"tested_on": "CYP3A4", "conditions": "DI study in healthy subjects; cited from earlier work"}, "[1]": {"experiment": "MTT proliferation / drug combination assay", "conditions": "human"}, "[2]": {"conditions": "2 µM daunorubicin, 1 h, read-out: IC50, relative daunorubicin accumulation"}, "[3]": {"conditions": "8 µM hoechst 33342, read-out: IC50, relative Hoechst 33342 accumulation"}}, "note": "Where two headings read alike, the source gives them in different places."}
{"smiles": "CN1CCC(COc2cnc(-c3cccc(Cn4nc(-c5cccc(C#N)c5)ccc4=O)c3)nc2)CC1", "note": "[tepotinib, Tepotinib]", "values": [{"measurement": "IC50", "setting": "ABCB1; [2]", "value": 1280, "unit": "nM"}, {"measurement": "IC50", "setting": "ABCB1; [3]", "value": 3150, "unit": "nM"}, {"measurement": "IC50", "setting": "ABCG2; 5 µM mitoxantrone, 1 h, read-out: IC50, relative mitoxantrone accumulation", "value": 29.9, "unit": "µM"}, {"measurement": "IC50", "setting": "ABCG2; [3]", "value": 15.8, "unit": "µM"}, {"measurement": "IC50", "setting": "ABCC1; 2 µM calcein AM, read-out: IC50, relative calceinAM accumulation", "value": 24.5, "unit": "µM"}, {"measurement": "IC50", "setting": "ABCC1; [2]", "value": "> 50", "unit": "µM"}, {"measurement": "IC50", "setting": "CYP3A5", "value": 38.8, "unit": "µM"}, {"measurement": "IC50", "setting": "CYP2B6", "value": "> 50", "unit": "µM"}, {"measurement": "IC50", "setting": "CYP2C19", "value": 16.9, "unit": "µM"}, {"measurement": "IC50", "setting": "A431-par cells", "value": 15.7, "unit": "µM"}, {"measurement": "IC50", "setting": "A431-ABCC1 cells", "value": 16.2, "unit": "µM"}, {"measurement": "IC50", "setting": "HL60-par cells", "value": 19.5, "unit": "µM"}, {"measurement": "Effect on CYP3A4 substrate midazolam", "setting": "CYP3A4", "value": "failed to exert the effect"}, {"measurement": "IC50 at 48 h", "setting": "[1]", "value": 16.4, "unit": "µM"}]}
